Measurements reported in patent US20100144733A1, “Compounds, compositions and methods comprising heteroaromatic derivatives” (Institute for OneWorld Health, priority 2008, published 2010).

These molecules were tested against T1, CFTR (Homo sapiens, UniProt P13569) (assay: T84 assay (FLIPR membrane potential dye, forskolin/IBMX-stimulated CFTR channel activity)). Conditions: imidazole and triazole-containing compounds (Tables 13, 14, 14′), read-out: IC50 (μM) (T84 assay).
T1 construct: endogenous in cells; host or cells: T84 human colonic cells (ECACC)
T1 sequence (P13569 whole entry): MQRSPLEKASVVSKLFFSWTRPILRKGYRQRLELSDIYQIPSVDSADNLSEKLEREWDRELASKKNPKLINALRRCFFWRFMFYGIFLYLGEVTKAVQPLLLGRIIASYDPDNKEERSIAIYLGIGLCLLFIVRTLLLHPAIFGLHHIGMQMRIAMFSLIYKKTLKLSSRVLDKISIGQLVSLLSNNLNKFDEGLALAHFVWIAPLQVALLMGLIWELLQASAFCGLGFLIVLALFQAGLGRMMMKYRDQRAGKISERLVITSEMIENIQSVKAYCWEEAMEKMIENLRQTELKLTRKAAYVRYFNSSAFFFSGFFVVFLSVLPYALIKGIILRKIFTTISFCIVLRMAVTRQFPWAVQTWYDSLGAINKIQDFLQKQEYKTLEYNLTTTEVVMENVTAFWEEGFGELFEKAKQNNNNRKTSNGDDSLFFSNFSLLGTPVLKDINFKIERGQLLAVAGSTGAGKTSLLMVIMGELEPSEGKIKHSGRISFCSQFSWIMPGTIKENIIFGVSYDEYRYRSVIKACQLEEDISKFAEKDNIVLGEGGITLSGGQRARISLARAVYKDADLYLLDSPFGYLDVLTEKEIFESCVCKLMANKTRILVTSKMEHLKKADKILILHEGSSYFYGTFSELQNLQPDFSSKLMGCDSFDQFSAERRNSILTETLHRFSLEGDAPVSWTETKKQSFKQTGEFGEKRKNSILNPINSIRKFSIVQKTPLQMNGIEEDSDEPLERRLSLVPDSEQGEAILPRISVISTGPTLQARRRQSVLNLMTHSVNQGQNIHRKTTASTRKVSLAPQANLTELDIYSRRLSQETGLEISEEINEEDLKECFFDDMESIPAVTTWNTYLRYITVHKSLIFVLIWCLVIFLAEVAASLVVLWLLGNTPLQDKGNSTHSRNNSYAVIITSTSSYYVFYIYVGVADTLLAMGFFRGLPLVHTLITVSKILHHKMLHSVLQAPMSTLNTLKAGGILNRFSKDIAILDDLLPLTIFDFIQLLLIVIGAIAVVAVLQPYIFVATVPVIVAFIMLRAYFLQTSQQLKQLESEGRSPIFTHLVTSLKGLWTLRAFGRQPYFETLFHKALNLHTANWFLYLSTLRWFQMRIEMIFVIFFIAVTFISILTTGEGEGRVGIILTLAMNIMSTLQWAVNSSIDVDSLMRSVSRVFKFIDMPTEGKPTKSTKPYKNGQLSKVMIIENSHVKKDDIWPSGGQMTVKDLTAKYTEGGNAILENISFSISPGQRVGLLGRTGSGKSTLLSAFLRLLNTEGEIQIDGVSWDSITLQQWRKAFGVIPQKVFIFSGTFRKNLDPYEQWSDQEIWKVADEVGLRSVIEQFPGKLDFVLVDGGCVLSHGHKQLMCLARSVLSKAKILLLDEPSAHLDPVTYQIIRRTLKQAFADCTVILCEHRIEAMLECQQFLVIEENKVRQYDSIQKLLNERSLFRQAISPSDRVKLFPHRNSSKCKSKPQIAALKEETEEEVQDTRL
Format: cell-based
Summary of the method: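 Fluorescence from a membrane potential dye in T84 monolayers (HBSS with 10 mM Hepes) is followed each second for 150 s. Cells are exposed to test compound during the 45 min dye loading, then challenged with forskolin (10 μM) and IBMX (100 μM) to open CFTR. Inhibitors suppress the depolarization-driven fluorescence increase.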

IC50 [µM]	Compound
8.67	O=C(NCc1ccc(Cl)cc1)c1ncn(-c2cc(Cl)c(O)c(Cl)c2)n1 [48i, N-(4-chlorobenzyl)-1-(3,5-dichloro-4-hydroxyphenyl)-1H-1,2,4-triazole-3-carboxamide]
16.2	CN(Cc1cccc(C(F)(F)F)c1)C(=O)c1ncn(-c2cc(Cl)c(O)c(Cl)c2)n1 [6i, 1-(3,5-dichloro-4-hydroxyphenyl)-N-methyl-N-(3-(trifluoromethyl)benzyl)-1H-1,2,4-triazole-3-carboxamide]
2.19	CON(Cc1ccc(C(C)C)cc1)C(=O)c1ncn(-c2cc(Cl)c(O)c(Cl)c2)n1 [128i, 1-(3,5-dichloro-4-hydroxyphenyl)-N-(4-isopropylbenzyl)-N-methoxy-1H-1,2,4-triazole-3-carboxamide]

Further lines, the molecule ahead of its results:

Compound	IC50 [µM]
COCCOCCOCCN(Cc1cccc(OC(F)(F)F)c1)C(=O)c1ncn(-c2cc(Cl)c(O)c(Cl)c2)n1 [113i, 1-(3,5-dichloro-4-hydroxyphenyl)-N-(2-(2-(2-methoxyethoxy)ethoxy)ethyl)-N-(3-(trifluoromethoxy)benzyl)-1H-1,2,4-triazole-3-carboxamide]	23.5
Cc1noc(C)c1CCNC(=O)c1ncn(-c2cc(Cl)c(O)c(Cl)c2)n1 [74i, 1-(3,5-dichloro-4-hydroxyphenyl)-N-(2-(3,5-dimethylisoxazol-4-yl)ethyl)-1H-1,2,4-triazole-3-carboxamide]	1.28
COCCOCCOCCON(Cc1ccc(Oc2ccccc2)cc1)C(=O)c1ncn(-c2cc(Cl)c(O)c(Cl)c2)n1 [123i, 1-(3,5-dichloro-4-hydroxyphenyl)-N-(2-(2-(2-methoxyethoxy)ethoxy)ethoxy)-N-(4-phenoxybenzyl)-1H-1,2,4-triazole-3-carboxamide]	8.44
CN(C)c1cccc(CNC(=O)c2ncn(-c3cc(Cl)c(O)c(Cl)c3)n2)c1 [26i, 1-(3,5-dichloro-4-hydroxyphenyl)-N-(3-(dimethylamino)benzyl)-1H-1,2,4-triazole-3-carboxamide]	3.92

Same assay, conditions: isoxazole-containing compounds (Table 10, 10′, 11, 11′), read-out: IC50

IC50 [µM]	Compound
7.02	CN(Cc1cccc(C(F)(F)F)c1)C(=O)c1cc(-c2cc(Cl)c(O)c(Cl)c2)on1 [6g, 5-(3,5-dichloro-4-hydroxyphenyl)-N-methyl-N-(3-(trifluoromethyl)benzyl)isoxazole-3-carboxamide]
6.51	O=C(c1cc(-c2cc(Cl)c(O)c(Cl)c2)on1)N1CCC(Cc2ccccc2)CC1 [12g, (4-benzylpiperidin-1-yl)(5-(3,5-dichloro-4-hydroxyphenyl)isoxazol-3-yl)methanone]

Same assay, conditions: oxadiazole-containing compounds (a series), average of at least 2 runs unless annotated n = 1, read-out: IC50

IC50 [µM]	Compound
7.26	O=C(NCc1ccc2sccc2c1)c1nc(-c2cc(Br)c(O)c(Br)c2)no1 [10a, N-(benzo[b]thiophen-5-ylmethyl)-3-(3,5-dibromo-4-hydroxyphenyl)-1,2,4-oxadiazole-5-carboxamide]
23.3	O=C(NCc1ccc(Oc2ccc(Cl)c(C(F)(F)F)c2)cc1)c1nc(-c2cc(Cl)c(O)c(Cl)c2)no1 [202a, N-(4-(4-chloro-3-(trifluoromethyl)phenoxy)benzyl)-3-(3,5-dichloro-4-hydroxyphenyl)-1,2,4-oxadiazole-5-carboxamide]
12.4	CN(Cc1ccc(Oc2ccccn2)cc1)C(=O)c1nc(-c2cc(Cl)c(O)c(Cl)c2)no1 [173a, 3-(3,5-dichloro-4-hydroxyphenyl)-N-methyl-N-(4-(pyridin-2-yloxy)benzyl)-1,2,4-oxadiazole-5-carboxamide]
10.7	O=C(NCc1ccc(Oc2cccc(Cl)c2)cc1)c1nc(-c2cc(Cl)c(O)c(Cl)c2)no1 [179a, N-(4-(3-chlorophenoxy)benzyl)-3-(3,5-dichloro-4-hydroxyphenyl)-1,2,4-oxadiazole-5-carboxamide]
16.2	O=C(NCc1ccc(Oc2cc(Cl)cc(Cl)c2)cc1)c1nc(-c2cc(Cl)c(O)c(Cl)c2)no1 [196a, 3-(3,5-dichloro-4-hydroxyphenyl)-N-(4-(3,5-dichlorophenoxy)benzyl)-1,2,4-oxadiazole-5-carboxamide]
18.7	O=C(NCc1ccc(Oc2ccc(OC(F)(F)F)cc2)cc1)c1nc(-c2cc(Cl)c(O)c(Cl)c2)no1 [181a, 3-(3,5-dichloro-4-hydroxyphenyl)-N-(4-(4-(trifluoromethoxy)phenoxy)benzyl)-1,2,4-oxadiazole-5-carboxamide]
14.6	O=C(NCc1cccc(C(F)(F)F)c1)c1nc(-c2cc(Br)c(O)c(Br)c2)no1 [27a, 3-(3,5-dibromo-4-hydroxyphenyl)-N-(3-(trifluoromethyl)benzyl)-1,2,4-oxadiazole-5-carboxamide]
20.9	O=C(NCc1ccc(Cn2cccn2)cc1)c1noc(-c2cc(Cl)c(O)c(Cl)c2)n1 [156a, N-(4-((1H-pyrazol-1-yl)methyl)benzyl)-5-(3,5-dichloro-4-hydroxyphenyl)-1,2,4-oxadiazole-3-carboxamide]
11.5	O=C(NCc1cccc(OC(F)F)c1)c1noc(-c2cc(Cl)c(O)c(Cl)c2)n1 [163a, 5-(3,5-dichloro-4-hydroxyphenyl)-N-(3-(difluoromethoxy)benzyl)-1,2,4-oxadiazole-3-carboxamide]
6.71	O=C(c1nc(-c2cc(Cl)c(O)c(Cl)c2)no1)N(Cc1cccc(C(F)(F)F)c1)Cc1cccc(C(F)(F)F)c1 [101a, 3-(3,5-dichloro-4-hydroxyphenyl)-N,N-bis(3-(trifluoromethyl)benzyl)-1,2,4-oxadiazole-5-carboxamide]
2.95	CC(C)(C)c1ccc(CNC(=O)c2nc(-c3cc(Cl)c(O)c(Cl)c3)no2)cc1 [136a, N-(4-tert-butylbenzyl)-3-(3,5-dichloro-4-hydroxyphenyl)-1,2,4-oxadiazole-5-carboxamide]
2.86	CC#CCN(Cc1cccc(C(F)(F)F)c1)C(=O)c1nc(-c2cc(Cl)c(O)c(Cl)c2)no1 [98a, N-(but-2-ynyl)-3-(3,5-dichloro-4-hydroxyphenyl)-N-(3-(trifluoromethyl)benzyl)-1,2,4-oxadiazole-5-carboxamide]
8.92	O=C(NCCC(c1ccccc1)c1ccccc1)c1nc(-c2cc(Br)c(O)c(Br)c2)no1 [14a, 3-(3,5-dibromo-4-hydroxyphenyl)-N-(3,3-diphenylpropyl)-1,2,4-oxadiazole-5-carboxamide]
7.44	O=C(NCc1ccc(Oc2ccc(F)cc2)cc1)c1nc(-c2cc(Cl)c(O)c(Cl)c2)no1 [171a, 3-(3,5-dichloro-4-hydroxyphenyl)-N-(4-(4-fluorophenoxy)benzyl)-1,2,4-oxadiazole-5-carboxamide]
27.1	O=C(NCc1ccc(Cl)cc1)c1nc(-c2cc(Br)c(O)c(Br)c2)no1 [40a, N-(4-chlorobenzyl)-3-(3,5-dibromo-4-hydroxyphenyl)-1,2,4-oxadiazole-5-carboxamide]

Further lines, the molecule ahead of its results:

Compound	IC50 [µM]
CC(C)Oc1ccc(Oc2ccc(CNC(=O)c3nc(-c4cc(Cl)c(O)c(Cl)c4)no3)cc2)cc1Cl [180a, N-(4-(3-chloro-4-isopropoxyphenoxy)benzyl)-3-(3,5-dichloro-4-hydroxyphenyl)-1,2,4-oxadiazole-5-carboxamide]	10.3
O=C(NCc1ccc(Oc2ccc(Br)cc2)cc1)c1nc(-c2cc(Cl)c(O)c(Cl)c2)no1 [182a, N-(4-(4-bromophenoxy)benzyl)-3-(3,5-dichloro-4-hydroxyphenyl)-1,2,4-oxadiazole-5-carboxamide]	8.03
O=C(NCc1ccc(F)c(Cl)c1)c1nc(-c2cc(Cl)c(O)c(Cl)c2)no1 [130a, N-(3-chloro-4-fluorobenzyl)-3-(3,5-dichloro-4-hydroxyphenyl)-1,2,4-oxadiazole-5-carboxamide]	9.44
COC(=O)C1CCN(C(=O)COc2c(Br)cc(-c3noc(C(=O)N4CCC(Cc5ccccc5)CC4)n3)cc2Br)CC1 [68a, methyl 1-(2-(4-(5-(4-benzylpiperidine-1-carbonyl)-1,2,4-oxadiazol-3-yl)-2,6-dibromophenoxy)acetyl)piperidine-4-carboxylate]	10.3
O=C(c1nc(-c2cc(Cl)c(O)c(Cl)c2)no1)N1CCC(Cc2ccccc2)CC1 [204a, (4-benzylpiperidin-1-yl)(3-(3,5-dichloro-4-hydroxyphenyl)-1,2,4-oxadiazol-5-yl)methanone]	8.99
O=C(CN(Cc1cccc(C(F)(F)F)c1)C(=O)c1nc(-c2cc(Cl)c(O)c(Cl)c2)no1)c1ccccc1 [90a, 3-(3,5-dichloro-4-hydroxyphenyl)-N-(2-oxo-2-phenylethyl)-N-(3-(trifluoromethyl)benzyl)-1,2,4-oxadiazole-5-carboxamide]	8.38
O=C(c1nc(-c2cc(Br)c(O)c(Br)c2)no1)N1CCC(Cc2ccccc2)CC1 [18a, (4-benzylpiperidin-1-yl)(3-(3,5-dibromo-4-hydroxyphenyl)-1,2,4-oxadiazol-5-yl)methanone]	12.3
CN(Cc1ccc(F)c(F)c1)C(=O)c1noc(-c2cc(Cl)c(O)c(Cl)c2)n1 [117a, 5-(3,5-dichloro-4-hydroxyphenyl)-N-(3,4-difluorobenzyl)-N-methyl-1,2,4-oxadiazole-3-carboxamide]	19.9
O=C(NCc1cccc(OCc2ccccc2)c1)c1nc(-c2cc(Cl)c(O)c(Cl)c2)no1 [141a, N-(3-(benzyloxy)benzyl)-3-(3,5-dichloro-4-hydroxyphenyl)-1,2,4-oxadiazole-5-carboxamide]	7.79
CCN(Cc1ccccc1)C(=O)c1nc(-c2cc(Cl)c(O)c(Cl)c2)no1 [140a, N-benzyl-3-(3,5-dichloro-4-hydroxyphenyl)-N-ethyl-1,2,4-oxadiazole-5-carboxamide]	19.9

Same assay, conditions: thiadiazole-containing compounds (Table 12), read-out: IC50

IC50 [µM]	Compound
5.65	Oc1c(Cl)cc(-c2nnc(Cc3cccc(Cl)c3)s2)cc1Cl [1h, 2,6-dichloro-4-(5-(3-chlorobenzyl)-1,3,4-thiadiazol-2-yl)phenol]

Same assay, conditions: triazine-containing compounds (Table 8 and 8′), read-out: IC50

IC50 [µM]	Compound
3.49	N#Cc1ccc(COc2ncc(-c3cc(Br)c(O)c(Br)c3)nn2)cc1 [101e, 4-((6-(3,5-dibromo-4-hydroxyphenyl)-1,2,4-triazin-3-yloxy)methyl)benzonitrile]
